Laboratory results as given in article PMC5218480 (PLoS ONE, 2017).

Test system: MV-4-11 cells
Assay: Gene expression microarray analysis (Affymetrix PrimeView) and GSEA
Type: cell-based, human
Set-up: RFU PODN (11730768_x_at) / Fold change /veh PODN (11730768_x_at) / RFU LINC00158 (11744669_a_at) / Fold change /veh LINC00158 (11744669_a_at) / RFU DUSP10 (11751237_a_at) / Fold change /veh DUSP10 (11751237_a_at) / RFU ID3 (11757404_x_at) / Fold change /veh ID3 (11757404_x_at) / RFU PLEKHG5 (11737974_s_at) / Fold change /veh PLEKHG5 (11737974_s_at) / RFU LRRC4B (11730491_at) / Fold change /veh LRRC4B (11730491_at) / RFU GIMAP4 (11747438_a_at) / Fold change /veh GIMAP4 (11747438_a_at) / RFU KRT8 (11758183_x_at) / Fold change /veh KRT8 (11758183_x_at) / RFU CNN1 (11734310_a_at) / Fold change /veh CNN1 (11734310_a_at) / RFU VPS37D (11726825_at) / Fold change /veh VPS37D (11726825_at) / RFU C10orf10 (11716522_x_at) / Fold change /veh C10orf10 (11716522_x_at) / RFU KIR2DL2 /// KIR2DL4 /// KIR2DL5A /// KIR2DL5B /// KIR2DS1 /// KIR2DS2 /// KIR2DS3 /// KIR2DS4 /// KIR3DL3 /// KIR3DL3 /// KIR3DS1 (11738374_at) / Fold change /veh KIR2DL2 /// KIR2DL4 /// KIR2DL5A /// KIR2DL5B /// KIR2DS1 /// KIR2DS2 /// KIR2DS3 /// KIR2DS4 /// KIR3DL3 /// KIR3DL3 /// KIR3DS1 (11738374_at) / RFU C1QL1 (11718748_at) / Fold change /veh C1QL1 (11718748_at) / RFU TMPRSS4 (11747572_a_at) / Fold change /veh TMPRSS4 (11747572_a_at) / RFU HAMP (11756126_x_at) / Fold change /veh HAMP (11756126_x_at) / RFU RNFT2 (11725882_a_at) / Fold change /veh RNFT2 (11725882_a_at) / RFU NR4A2 (11747474_a_at) / Fold change /veh NR4A2 (11747474_a_at) / RFU ABCC12 (11746883_a_at) / Fold change /veh ABCC12 (11746883_a_at) / RFU TMEM136 (11760407_x_at) / Fold change /veh TMEM136 (11760407_x_at) / RFU CLDN22 /// WWC2 (11732394_at) / Fold change /veh CLDN22 /// WWC2 (11732394_at) / RFU HLA-DPB1 (11760878_x_at) / Fold change /veh HLA-DPB1 (11760878_x_at) / RFU SPINT1 (11716480_a_at) / Fold change /veh SPINT1 (11716480_a_at) / RFU GAP43 (11754022_s_at) / Fold change /veh GAP43 (11754022_s_at) / RFU A4GNT (11735810_at) / Fold change /veh A4GNT (11735810_at) / RFU PRB3 (11715151_x_at) / Fold change /veh PRB3 (11715151_x_at) / RFU TUBB4B (11761932_at) / Fold change /veh TUBB4B (11761932_at) / RFU CAPN14 (11732068_a_at) / Fold change /veh CAPN14 (11732068_a_at) / RFU TMCC2 (11721928_a_at) / Fold change /veh TMCC2 (11721928_a_at) / RFU IRGQ (11745062_a_at) / Fold change /veh IRGQ (11745062_a_at) / RFU FAM174B (11720279_a_at) / Fold change /veh FAM174B (11720279_a_at) / RFU TMPRSS4 (11748680_a_at) / Fold change /veh TMPRSS4 (11748680_a_at) / RFU FAM212B (11763350_a_at) / Fold change /veh FAM212B (11763350_a_at) / RFU PLEKHG5 (11743358_a_at) / Fold change /veh PLEKHG5 (11743358_a_at) / RFU ZSCAN30 (11745921_a_at) / Fold change /veh ZSCAN30 (11745921_a_at) / RFU CMKLR1 (11741424_a_at) / Fold change /veh CMKLR1 (11741424_a_at) / RFU LOC101060620 /// MAPK8IP1 (11723275_at) / Fold change /veh LOC101060620 /// MAPK8IP1 (11723275_at) / RFU SPTSSB (11747773_x_at) / Fold change /veh SPTSSB (11747773_x_at) / RFU PRSS12 (11739890_at) / Fold change /veh PRSS12 (11739890_at) / RFU BIN1 (11741810_x_at) / Fold change /veh BIN1 (11741810_x_at) / RFU WNT11 (11732464_a_at) / Fold change /veh WNT11 (11732464_a_at) / RFU C10orf10 (11716521_a_at) / Fold change /veh C10orf10 (11716521_a_at) / RFU C5orf56 (11738089_at) / Fold change /veh C5orf56 (11738089_at) / RFU CYB561 (11721691_x_at) / Fold change /veh CYB561 (11721691_x_at) / RFU ANKRD19P (11752326_a_at) / Fold change /veh ANKRD19P (11752326_a_at) / RFU OR2T12 /// OR2T33 /// OR2T8 (11738714_s_at) / Fold change /veh OR2T12 /// OR2T33 /// OR2T8 (11738714_s_at) / RFU VCAN (11748164_a_at) / Fold change /veh VCAN (11748164_a_at) / RFU JSRP1 (11732532_at) / Fold change /veh JSRP1 (11732532_at) / RFU KRTAP10-11 (11738290_x_at) / Fold change /veh KRTAP10-11 (11738290_x_at) / RFU MYO3A (11730013_a_at) / Fold change /veh MYO3A (11730013_a_at) / RFU EBF3 (11725865_a_at) / Fold change /veh EBF3 (11725865_a_at) / RFU CAMK2N1 (11719241_x_at) / Fold change /veh CAMK2N1 (11719241_x_at) / RFU C5orf56 (11738088_a_at) / Fold change /veh C5orf56 (11738088_a_at) / RFU OLFML3 (11715873_a_at) / Fold change /veh OLFML3 (11715873_a_at) / RFU LOC100653217 /// NTM (11731650_a_at) / Fold change /veh LOC100653217 /// NTM (11731650_a_at) / RFU MAPK11 (11762145_a_at) / Fold change /veh MAPK11 (11762145_a_at) / RFU FIZ1 (11724087_x_at) / Fold change /veh FIZ1 (11724087_x_at) / RFU OASL (11726364_x_at) / Fold change /veh OASL (11726364_x_at) / RFU SOX15 (11748057_x_at) / Fold change /veh SOX15 (11748057_x_at) / RFU CD79A (11719716_a_at) / Fold change /veh CD79A (11719716_a_at) / RFU HIST1H1D (11736915_at) / Fold change /veh HIST1H1D (11736915_at) / RFU CASKIN2 (11723855_a_at) / Fold change /veh CASKIN2 (11723855_a_at) / RFU LOC730098 (11760151_x_at) / Fold change /veh LOC730098 (11760151_x_at) / RFU OR4N2 (11742367_at) / Fold change /veh OR4N2 (11742367_at) / RFU PRRT2 (11749266_a_at) / Fold change /veh PRRT2 (11749266_a_at) / RFU SNX32 (11753110_a_at) / Fold change /veh SNX32 (11753110_a_at) / RFU CDHR5 (11726645_a_at) / Fold change /veh CDHR5 (11726645_a_at) / RFU RCAN1 (11760418_a_at) / Fold change /veh RCAN1 (11760418_a_at) / RFU FAM167A (11723789_a_at) / Fold change /veh FAM167A (11723789_a_at) / RFU FAM26E (11764081_at) / Fold change /veh FAM26E (11764081_at) / RFU ISYNA1 (11749810_s_at) / Fold change /veh ISYNA1 (11749810_s_at) / RFU ACY1 (11761880_at) / Fold change /veh ACY1 (11761880_at) / RFU 11764098_at / Fold change /veh 11764098_at / RFU SAMD14 (11745864_x_at) / Fold change /veh SAMD14 (11745864_x_at) / RFU NPB (11741838_a_at) / Fold change /veh NPB (11741838_a_at) / RFU TMPRSS6 (11731388_a_at) / Fold change /veh TMPRSS6 (11731388_a_at) / RFU KRTAP10-2 (11738614_at) / Fold change /veh KRTAP10-2 (11738614_at) / RFU ARHGAP8 /// PRR5-ARHGAP8 (11727945_x_at) / Fold change /veh ARHGAP8 /// PRR5-ARHGAP8 (11727945_x_at) / RFU KRTAP5-7 /// NADSYN1 (11734609_at) / Fold change /veh KRTAP5-7 /// NADSYN1 (11734609_at) / RFU RASL12 (11751679_a_at) / Fold change /veh RASL12 (11751679_a_at) / RFU CDKN2B (11736163_a_at) / Fold change /veh CDKN2B (11736163_a_at) / RFU PRF1 (11729649_at) / Fold change /veh PRF1 (11729649_at) / RFU, ZNF638 /// ZNF638-IT1 / Fold change vs veh, ZNF638 /// ZNF638-IT1 / RFU, PANK3 / Fold change vs veh, PANK3 / RFU, SH3YL1 / Fold change vs veh, SH3YL1 / RFU, ZEB2 / Fold change vs veh, ZEB2 / RFU, NRIP1 / Fold change vs veh, NRIP1 / RFU, PTTG1IP / Fold change vs veh, PTTG1IP / RFU, CAPN2 / Fold change vs veh, CAPN2 / RFU, MED14 / Fold change vs veh, MED14 / RFU, SNORA58 / Fold change vs veh, SNORA58 / RFU, C1orf63 / Fold change vs veh, C1orf63 / RFU, LRRFIP1 / Fold change vs veh, LRRFIP1 / RFU, NDUFAF7 / Fold change vs veh, NDUFAF7 / RFU, SLC12A2 / Fold change vs veh, SLC12A2 / RFU, IBTK / Fold change vs veh, IBTK / RFU, ESF1 / Fold change vs veh, ESF1 / Fold change vs veh, TMEM50B / RFU, TAOK1 / Fold change vs veh, TAOK1 / RFU, ACBD3 / Fold change vs veh, ACBD3 / RFU, TMA16 / Fold change vs veh, TMA16 / RFU, RWDD3 / Fold change vs veh, RWDD3 / RFU, BCAT1 / Fold change vs veh, BCAT1 / RFU, EDEM3 / Fold change vs veh, EDEM3 / RFU, TMEM33 / Fold change vs veh, TMEM33 / RFU, WDR75 / Fold change vs veh, WDR75 / RFU, AHCTF1 / Fold change vs veh, AHCTF1 / RFU, TFRC / Fold change vs veh, TFRC / RFU, ZDHHC17 / Fold change vs veh, ZDHHC17 / RFU, NOM1 / Fold change vs veh, NOM1 / RFU, ARL8B / Fold change vs veh, ARL8B / RFU, ZBTB11 / Fold change vs veh, ZBTB11 / RFU, TAMM41 / Fold change vs veh, TAMM41 / RFU, KIAA1704 /// LOC100996395 / Fold change vs veh, KIAA1704 /// LOC100996395 / RFU, ING1 / Fold change vs veh, ING1 / RFU, TRMT61B / Fold change vs veh, TRMT61B / RFU, FUBP3 / Fold change vs veh, FUBP3 / RFU, TP53 / Fold change vs veh, TP53 / RFU, TNKS2 / Fold change vs veh, TNKS2 / RFU, ZFP14 / Fold change vs veh, ZFP14 / RFU, ACTR2 / Fold change vs veh, ACTR2 / RFU, PPP3R1 / Fold change vs veh, PPP3R1 / RFU, PIK3R1 / Fold change vs veh, PIK3R1 / RFU, HNRNPA1 / Fold change vs veh, HNRNPA1 / RFU, RNF170 / Fold change vs veh, RNF170 / RFU, ZNF28 / Fold change vs veh, ZNF28 / RFU, RNGTT / Fold change vs veh, RNGTT / RFU, OGT / Fold change vs veh, OGT / RFU, BRD1 / Fold change vs veh, BRD1 / RFU, MARS / Fold change vs veh, MARS / RFU, ZNF655 / Fold change vs veh, ZNF655 / RFU, FAHD1 / Fold change vs veh, FAHD1 / RFU, BDP1 / Fold change vs veh, BDP1 / RFU, LRRCC1 / Fold change vs veh, LRRCC1 / RFU, ARID1A / Fold change vs veh, ARID1A / RFU, ZNF146 / Fold change vs veh, ZNF146 / RFU, ZNF330 / Fold change vs veh, ZNF330 / RFU, GPN3 / Fold change vs veh, GPN3 / RFU, C9orf123 / Fold change vs veh, C9orf123 / RFU, N4BP2L2 / Fold change vs veh, N4BP2L2 / RFU, ARFIP1 / Fold change vs veh, ARFIP1 / RFU, FAM179B / Fold change vs veh, FAM179B / RFU, BCL10 / Fold change vs veh, BCL10 / RFU, UHRF1BP1L / Fold change vs veh, UHRF1BP1L / RFU, BET1 / Fold change vs veh, BET1 / RFU, CNOT2 / Fold change vs veh, CNOT2 / RFU, ZNF268 / Fold change vs veh, ZNF268 / Fold change vs veh, ZNF507 / RFU, DGCR2 / Fold change vs veh, DGCR2 / RFU, WDSUB1 / Fold change vs veh, WDSUB1 / Fold change vs veh, HSP90B1 /// MIR3652 / RFU, ADSS / Fold change vs veh, ADSS / RFU, GK / Fold change vs veh, GK / RFU, ZNF148 / Fold change vs veh, ZNF148 / RFU, TAF9 / Fold change vs veh, TAF9 / RFU, SLC1A5 / Fold change vs veh, SLC1A5 / RFU, SLMO2 / Fold change vs veh, SLMO2 / RFU, ABCC4 / Fold change vs veh, ABCC4 / RFU, LOC101060439 /// RAP1B / Fold change vs veh, LOC101060439 /// RAP1B / RFU, RFX7 / Fold change vs veh, RFX7 / RFU, GTPBP10 / Fold change vs veh, GTPBP10 / RFU, CNEP1R1 / Fold change vs veh, CNEP1R1 / RFU, BIVM-ERCC5 /// ERCC5 / Fold change vs veh, BIVM-ERCC5 /// ERCC5 / RFU, ILF3 / Fold change vs veh, ILF3 / RFU 11762660_at / Fold change /veh 11762660_at / RFU VCAN (11757783_s_at) / Fold change /veh VCAN (11757783_s_at) / RFU DDX43 (11728927_at) / Fold change /veh DDX43 (11728927_at) / RFU KRT8 (11758188_x_at) / Fold change /veh KRT8 (11758188_x_at) / RFU NKD1 (11759106_at) / Fold change /veh NKD1 (11759106_at) / RFU SRD5A1 (11742802_a_at) / Fold change /veh SRD5A1 (11742802_a_at) / RFU TPSAB1 /// TPSB2 (11721975_s_at) / Fold change /veh TPSAB1 /// TPSB2 (11721975_s_at) / RFU GSTM3 (11746129_a_at) / Fold change /veh GSTM3 (11746129_a_at) / RFU IL23R (11737362_x_at) / Fold change /veh IL23R (11737362_x_at) / RFU TMEM51 (11727254_a_at) / Fold change /veh TMEM51 (11727254_a_at) / RFU PIWIL2 (11732686_x_at) / Fold change /veh PIWIL2 (11732686_x_at) / RFU ORM1 (11744905_x_at) / Fold change /veh ORM1 (11744905_x_at) / RFU CCDC152 (11743942_at) / Fold change /veh CCDC152 (11743942_at) / RFU ECM1 (11717891_a_at) / Fold change /veh ECM1 (11717891_a_at) / RFU IL23R (11748794_a_at) / Fold change /veh IL23R (11748794_a_at) / RFU TNFAIP8L3 (11732012_x_at) / Fold change /veh TNFAIP8L3 (11732012_x_at) / RFU MBOAT4 (11741988_at) / Fold change /veh MBOAT4 (11741988_at) / RFU 11764193_at / Fold change /veh 11764193_at / RFU TMEM53 (11763286_at) / Fold change /veh TMEM53 (11763286_at) / RFU MAGEB2 (11727129_at) / Fold change /veh MAGEB2 (11727129_at) / RFU TMEM200A (11744735_a_at) / Fold change /veh TMEM200A (11744735_a_at) / RFU CCDC152 (11751479_a_at) / Fold change /veh CCDC152 (11751479_a_at) / RFU FAM211A (11726209_a_at) / Fold change /veh FAM211A (11726209_a_at) / RFU RGS16 (11746705_a_at) / Fold change /veh RGS16 (11746705_a_at) / RFU VCAN (11755009_s_at) / Fold change /veh VCAN (11755009_s_at) / RFU RHOB (11743442_s_at) / Fold change /veh RHOB (11743442_s_at) / RFU RGS16 (11720943_a_at) / Fold change /veh RGS16 (11720943_a_at) / RFU RGS16 (11720944_at) / Fold change /veh RGS16 (11720944_at) / RFU, VPS4B / Fold change vs veh, VPS4B / RFU, CREB1 / Fold change vs veh, CREB1 / RFU, DNAJC13 / Fold change vs veh, DNAJC13 / RFU, GNAQ / Fold change vs veh, GNAQ / RFU, CDK5R1 / Fold change vs veh, CDK5R1 / RFU, ZRANB3 / Fold change vs veh, ZRANB3 / RFU, CUL4A / Fold change vs veh, CUL4A / RFU, CCNY / Fold change vs veh, CCNY / RFU, UFL1 / Fold change vs veh, UFL1 / RFU, COG3 / Fold change vs veh, COG3 / RFU, DIAPH2 / Fold change vs veh, DIAPH2 / RFU, SKA2 / Fold change vs veh, SKA2 / RFU, AFF3 / Fold change vs veh, AFF3 / RFU, LMF1 / Fold change vs veh, LMF1 / RFU, IPO11 / Fold change vs veh, IPO11 / RFU, DFFB / Fold change vs veh, DFFB / RFU, FOXP1 / Fold change vs veh, FOXP1 / RFU, CARD8 / Fold change vs veh, CARD8 / RFU, STRN3 / Fold change vs veh, STRN3 / RFU, ADK / Fold change vs veh, ADK / RFU, RASSF2 / Fold change vs veh, RASSF2 / RFU, WIPF1 / Fold change vs veh, WIPF1 / RFU, LARP1B / Fold change vs veh, LARP1B / RFU, RASA1 / Fold change vs veh, RASA1 / RFU, RB1 / Fold change vs veh, RB1 / RFU, PPFIA1 / Fold change vs veh, PPFIA1 / RFU, MAT2A / Fold change vs veh, MAT2A / RFU, CCT5 / Fold change vs veh, CCT5 / RFU, WDR92 / Fold change vs veh, WDR92 / RFU, CUX1 / Fold change vs veh, CUX1 / RFU, TTC7A / Fold change vs veh, TTC7A / RFU, TMEM135 / Fold change vs veh, TMEM135 / RFU, DEPTOR / Fold change vs veh, DEPTOR / RFU, CPM / Fold change vs veh, CPM / RFU, DNAJB6 / Fold change vs veh, DNAJB6 / RFU, CACNA2D3 / Fold change vs veh, CACNA2D3 / RFU, DTX4 / Fold change vs veh, DTX4 / RFU, TFCP2 / Fold change vs veh, TFCP2 / RFU, GMCL1 /// GMCL1P1 / Fold change vs veh, GMCL1 /// GMCL1P1 / RFU, AEBP2 / Fold change vs veh, AEBP2 / RFU, SNHG1 /// SNORD22 /// SNORD25 /// SNORD26 /// SNORD27 /// SNORD28 /// SNORD29 /// SNORD31 / Fold change vs veh, SNHG1 /// SNORD22 /// SNORD25 /// SNORD26 /// SNORD27 /// SNORD28 /// SNORD29 /// SNORD31 / Fold change (Aza/veh), C12orf56 (ProbeSet 11735607_a_at) / Fold change (ACY-1035/veh), C12orf56 (ProbeSet 11735607_a_at) / Fold change (Aza/veh), FGFR1OP (ProbeSet 11751329_s_at) / Fold change (ACY-1035/veh), FGFR1OP (ProbeSet 11751329_s_at) / Fold change (Aza/veh), VPS36 (ProbeSet 11739960_a_at) / Fold change (ACY-1035/veh), VPS36 (ProbeSet 11739960_a_at) / RFU SYPL1 (11715823_x_at) / Fold change /veh SYPL1 (11715823_x_at) / RFU IGFBP7 (11715501_s_at) / Fold change /veh IGFBP7 (11715501_s_at) / RFU REEP3 (11722064_at) / Fold change /veh REEP3 (11722064_at) / RFU IGLL1 (11728026_x_at) / Fold change /veh IGLL1 (11728026_x_at): dose or concentration left out as unconfirmed
Settings: MV-4-11 cells, 48 hours

## Nc1ncn([C@@H]2O[C@H](CO)[C@@H](O)[C@H]2O)c(=O)n1 [azacitidine]
  RFU LOC730098 (11760151_x_at): 36.57 RFU
